Laboratory results as given in US9359451B2, “Methods and compositions for treating trauma-hemorrhage using estrogen and derivatives thereof” (THE UAB RESEARCH FOUNDATION, priority 2012, dated 2016).
Entries after “also recorded” stand apart in the source; their conditions may differ.

Columns and labels:
[1] = rat, in vivo, iv
liver ATP and pH = assay: 31P NMR spectroscopy of liver ATP and intracellular pH during hemorrhagic shock; format: in vivo, rat; conditions: FIG. 23; vs cyclodextrin control; listed as E2
Description: Imaging and nuclear magnetic resonance studies were conducted to evaluate the effects of E2 on preservation of adenosine triphosphate (ATP) and pH levels in the liver.
The traumatic injury can involve a reduction in cellular ATP levels as compared to control ATP levels. By “control” is meant levels as measured before the traumatic injury, or levels that are considered in the “normal” range for the subject. Imaging and nuclear magnetic resonance studies have also been conducted to evaluate the effects of E2 on preservation of adenosine triphosphate (ATP) and pH levels in the liver.
Although E2 administration after trauma-hemorrhage (T-H) and fluid resuscitation produces salutary effects on organ functions, it was not known if E2 has any beneficial effects after major blood loss in the absence of fluid resuscitation. Male SD rats ˜250 g) underwent T-H (tissue trauma, BP 40 mmHg in 10 min and maintained at that BP by further blood withdrawal until maximum bleed out (MBO, 60% of total blood volume) occurred (45:t5 min)). E2 i.v. (1 mg/Kg, 0.4 ml/Kg volume, i.e., 120 μL/300 g body weight) or vehicle (cyclodextrin, CD) was then infused. No additional fluid was given for 3 hours. If rats survived, they received Ringer's lactate, 4× the MBO volume. […]

spinal cord tissue = assay: Spinal cord injury (clip compression): histology and Luxol fast blue; format: in vivo, mouse; conditions: 24 h after SCI; for histological alterations of the spinal cord tissue (H&E, histological score): 17β-estradiol 300 μg/kg sc 1 h before, 3 h and 6 h after SCI, ICI 182,780: 500 μg/kg sc 1 h before 17β-estradiol; for myelin structure (Luxol fast blue): ICI 182,780: co-administered with 17β-estradiol
Description: Mice were anaesthetized using chloral hydrate (400 mg/kg body weight) (Genovese 2006). A longitudinal incision was made on the midline of the back, exposing the paravertebral muscles. These muscles were dissected away exposing T5-T8 vertebrae. The spinal cord was exposed via a four-level T6-T7 laminectomy and SCI was produced by extradural compression using an aneurysm clip with a closing force of 24 g. Following surgery, 1 ml of saline was administered subcutaneously in order to replace the blood volume lost during surgery. During the surgery and recovery from anesthesia, the mice were placed on a warm heating pad and covered with a warm towel. […] Food and water were provided to the mice ad libitum. During this time period, the animals' bladders were manually voided twice a day until the mice were able to regain normal bladder function. In all injured groups, the spinal cord was compressed for 1 min. Sham-injured animals were only subjected to laminectomy. […] In the experiments regarding the motor score, the animals from all the experimental groups were observed and treated daily for 9 days after SCI. At different time points (see FIG. 30), the mice (n=10 from each group for each of the 3 time points) were sacrificed in order to evaluate the various parameters as described below. Spinal cord biopsies were taken at 24 hours following trauma. Tissue segments containing the lesion (1 cm on each side of the lesion) were paraffin embedded and cut into 5-μm-thick sections. Tissue sections were deparaffinized with xylene, stained with Haematoxylin/Eosin (H&E) and Luxol Fast Blue staining (used to assess demyelination) and studied using light microscopy (Dialux 22 Leitz). The segments of each spinal cord were evaluated by an experienced histopathologist (RO). Damaged neurons were counted and the histopathologic changes of the gray matter were scored on a 6-point […] 2000): 0, no lesion observed, 1, gray matter contained 1 to 5 eosinophilic neurons; 2, gray matter contained 5 to 10 eosinophilic neurons; 3, gray matter contained more than 10 eosinophilic neurons; 4, small infarction (less than one third of the gray matter area); 5, moderate infarction; (one third to one half of the gray matter area); 6, large infarction (more than half of the gray matter area). The scores from all the sections from each spinal cord were averaged to give a final score for an individual mice. All the histological studies were performed in a blinded fashion.

myeloperoxidase (MPO) = assay: Spinal cord injury: neutrophil infiltration, MPO activity and MPO staining; format: in vivo, mouse; conditions: 24 h after SCI; ICI 182,780: co-administered with 17β-estradiol
Description: Mice were anaesthetized using chloral hydrate (400 mg/kg body weight) (Genovese 2006). A longitudinal incision was made on the midline of the back, exposing the paravertebral muscles. These muscles were dissected away exposing T5-T8 vertebrae. The spinal cord was exposed via a four-level T6-T7 laminectomy and SCI was produced by extradural compression using an aneurysm clip with a closing force of 24 g. Following surgery, 1 ml of saline was administered subcutaneously in order to replace the blood volume lost during surgery. During the surgery and recovery from anesthesia, the mice were placed on a warm heating pad and covered with a warm towel. […] Food and water were provided to the mice ad libitum. During this time period, the animals' bladders were manually voided twice a day until the mice were able to regain normal bladder function. In all injured groups, the spinal cord was compressed for 1 min. Sham-injured animals were only subjected to laminectomy. […] In the experiments regarding the motor score, the animals from all the experimental groups were observed and treated daily for 9 days after SCI. At different time points (see FIG. 30), the mice (n=10 from each group for each of the 3 time points) were sacrificed in order to evaluate the various parameters as described below. […] After deparaffinization, endogenous peroxidase was quenched with 0.3% (v/v) hydrogen peroxide in 60% (v/v) methanol for 30 min. […] Non-specific adsorption was minimized by incubating the section in 2% (v/v) normal goat serum in PBS for 20 min. Endogenous biotin or avidin binding sites were blocked by sequential incubation for 15 min with biotin and avidin (DBA), respectively. […] Sections were washed with PBS, and incubated with secondary antibody. Specific labeling was detected with a biotin-conjugated goat anti-rabbit IgG and avidin-biotin peroxidase complex (DBA) and counterstained with nuclear fast red. To verify the binding specificity for nitrotyrosine, iNOS, COX-2, Bax, and Bcl-2, some sections were also incubated with only the primary antibody (no secondary) or with only the secondary antibody (no primary). […] Immunocytochemistry photographs (n=5) were assessed by densitometry as previously described (Shea 1994) by using Imaging Densitometer (AxioVision, Zeiss, Milan, Italy) and a computer program. Myeloperoxidase (MPO) activity, an indicator of PMN accumulation, was determined as previously described (Mullane 1985) 24 h after SCI. […] The rate of change in absorbance was measured spectrophotometrically at 650 nm. MPO activity was defined as the quantity of enzyme degrading 1 μmol of peroxide per minute at 37° C. and was expressed in milliunits/g of wet tissue.

isolated vascular rings = assay: Vascular reactivity of isolated vascular rings in a physiological bath; design: species or system rat or pig; conditions: antagonist added to EE-3-SO4
Description: Data to delineate the mechanism of action for EE-3-SO4 vis-à-vis effects on the cardiovascular system was acquired. While it is well known that estrogens act on the vascular system by a variety of mechanisms including vasorelaxation per se, specific confirmation of this fact for EE-3-SO4 was needed. […] Vessels are contracted by a variety of agents (i.e., endothelin-1, phenylephrine). The action(s) are measured with a force transducer and recorded digitally. […] (see FIG. 42).

Row | Structure (SMILES) | blood levels after injection [1] | intracellular pH in liver (liver ATP and pH) | histological alterations of the spinal cord tissue (H&E, histological score) (spinal cord tissue) | myelin structure (Luxol fast blue) (spinal cord tissue) | MPO activity in spinal cord (myeloperoxidase (MPO)) | staining for MPO (myeloperoxidase (MPO)) | antagonism of EE-3-SO4's vessel relaxation (isolated vascular rings)
1 | C[C@]12CC[C@@H]3c4ccc(O)cc4CC[C@H]3[C@@H]1CC[C@@H]2O [17β-estradiol] | attains high blood levels rapidly | maintenance of pH near neutral; also recorded: pH remains near neutral | significant protection against the SCI-induced histological alteration; also recorded: significant protection from the SCI was observed | myelin degradation was attenuated | significantly attenuated; also recorded: significantly reduced the SCI-induced increase in MPO activity | visibly and significantly reduced | –
2 | C[C@]12CC[C@@H]3c4ccc(O)cc4C[C@@H](CCCCCCCCC[S+]([O-])CCCC(F)(F)C(F)(F)F)[C@H]3[C@@H]1CC[C@@H]2O (some centres unmarked) [ICI 182,780] | – | – | significantly blocked the effect of the 17β-estradiol | significantly blocked the effect of the 17β-estradiol | significantly blocked the effect of the 17β-estradiol | significantly blocked the effect of the 17β-estradiol | completely blocked
